# Read-outs that look alike come from different tables or passages of the source.
# Key:
# Aedes aegypti [1] = test: In vivo arm in cage test on forearm of human volunteers; details: 20% in ethanol on forearm; 0.05 h post application; three volunteers
# Ixodes ricinus = test: In vitro Warm Plate Assay for ticks; type: in vivo
# Method in brief: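 Repellency against last-stage Ixodes ricinus nymphs in an in vitro warm plate assay, compounds diluted in ethanol at 0.4 and 10 mg/mL, 0.0016% to 1%, or 20% (w/w). Ticks walking down or falling from the treated plate scored as affected, walking up as unaffected; groups of 12 ticks, n=2-5.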
# Aedes aegypti [2] = test: In vivo K&D assay on treated skin of human study participants
# Source text: For the K&D in vivo test [Klun J A, Debboun M. A new module for quantitative evaluation of controlling efficacy using human subjects. J Med Entomol. 2000; 37:177-81.], 3 study participants, 2 females and 1 male, showing low or no skin reactions against mosquito bites were recruited at the Swiss Tropical and Public Health Institute (Swiss TPH). […] The study was approved by the Ethics Commission of Northwest and Central Switzerland (Study no. PB_2017-00436-220/11) and all study participants signed an informed consent form. To avoid unwanted bias the participants were asked to avoid alcohol and products such as perfume, eau de cologne and lotions for at least 12 hours before and during the experiments. During the experiments the participants were also asked to avoid rubbing, touching or wetting the arthropod controlling compound-treated area as well as any activity that might lead to increased perspiration.
# In the in vivo assay, a template was used to delineate 4 cm×5 cm areas on the skin that correspond to each of the six cell openings (3 cm×4 cm) on the bottom of the K&D module. Five areas were treated with the different tested stimuli. The module, with five host-seeking, 5- to 10-day-old mosquitoes in each cell, was then positioned over the treated skin area. The number of mosquitoes blood feeding within a 2-minute exposure was recorded. This procedure was repeated until six replicate exposures and observations (i.e. 30 mosquitoes) were made for the three study participants.
smiles,measurement,setting,value
"Cc1ccc2c(c1)CC(C)(CO)C2 (stereo not shown) [ingredient #2, (2,5-dimethyl-2,3-dihydro-1H-inden-2yl)methanol]",% of repellency MEAN,Aedes aegypti [1],99.1%
same,percentage of ticks being affected,Ixodes ricinus; 0.00032% (Table 9),0%
same,MEAN % affected (ticks),Ixodes ricinus; 0.4 mg/mL in ethanol (Table 5),21%
same,percentage of ticks being affected,Ixodes ricinus; 0.00071% (Table 9),15%
same,percentage of ticks being affected,Ixodes ricinus; 0.0016% (Table 9),17%
same,percentage of ticks being affected,Ixodes ricinus; 0.00357% (Table 9),0%
same,percentage of ticks being affected,Ixodes ricinus; 0.0053% (Table 9),15%
same,percentage of ticks being affected,Ixodes ricinus; 0.008% (Table 9),0%
same,MEAN % affected (ticks),Ixodes ricinus; 10 mg/mL in ethanol (Table 5),92%
same,percentage of ticks being affected,Ixodes ricinus; 0.0119% (Table 9),8%
same,percentage of ticks being affected,Ixodes ricinus; 0.0178% (Table 9),17%
same,percentage of ticks being affected,Ixodes ricinus; 0.0267% (Table 9),38%
same,percentage of ticks being affected,Ixodes ricinus; 0.04% (Table 9),0%
same,percentage of ticks being affected,Ixodes ricinus; 0.0598% (Table 9),31%
same,percentage of ticks being affected,Ixodes ricinus; 0.089% (Table 9),29%
same,percentage of ticks being affected,Ixodes ricinus; 0.2% (Table 9),85%
same,percentage of ticks being affected,Ixodes ricinus; 0.447% (Table 9),100%
same,ticks affected / not affected over 12 (in words),Ixodes ricinus; 1%,only one tick over 12 was not affected
same,percentage of ticks being affected,Ixodes ricinus; 1% (Table 9),71%
same,percentage of ticks affected overtime,"Ixodes ricinus; 20% (w/w) in ethanol, 0.25 h post-application",100%
same,percentage of ticks affected overtime,"Ixodes ricinus; 20% (w/w) in ethanol, 0.5 h post-application",83%
same,percentage of ticks affected overtime,"Ixodes ricinus; 20% (w/w) in ethanol, 1 h post-application",100%
same,percentage of ticks affected overtime,"Ixodes ricinus; 20% (w/w) in ethanol, 2 h post-application",100%
same,percentage of ticks affected overtime,"Ixodes ricinus; 20% (w/w) in ethanol, 4 h post-application",0%
same,percentage of ticks affected overtime,"Ixodes ricinus; 20% (w/w) in ethanol, 6 h post-application",8%
same,ticks' repellency overtime (in words),"Ixodes ricinus; 20% (w/w) in ethanol, Table 14",better ticks' repellency than the known repellent
same,pest or weed control at 0.0016 %,"Ixodes ricinus; Ixodes ricinus, 0.0016% (Table 11), read-out: percentage of ticks affected on the Warm Plate",8%
same,pest or weed control at 0.0016 %,"Ixodes ricinus; Ixodes ricinus, 0.0016% in ethanol (Table 12), read-out: percentage of ticks affected on the Warm Plate",17%
same,pest or weed control at 0.0053 %,"Ixodes ricinus; Ixodes ricinus, 0.0053% in ethanol (Table 12), read-out: percentage of ticks affected on the Warm Plate",15%
same,pest or weed control at 0.008 %,"Ixodes ricinus; Ixodes ricinus, 0.008% in ethanol (Table 12), read-out: percentage of ticks affected on the Warm Plate",0%
same,pest or weed control at 0.0119 %,"Ixodes ricinus; Ixodes ricinus, 0.0119% in ethanol (Table 12), read-out: percentage of ticks affected on the Warm Plate",8%
same,pest or weed control at 0.0178 %,"Ixodes ricinus; Ixodes ricinus, 0.0178% in ethanol (Table 12), read-out: percentage of ticks affected on the Warm Plate",17%
same,pest or weed control at 0.0267 %,"Ixodes ricinus; Ixodes ricinus, 0.0267% in ethanol (Table 12), read-out: percentage of ticks affected on the Warm Plate",38%
same,pest or weed control at 0.04 %,"Ixodes ricinus; Ixodes ricinus, 0.04% (Table 11), read-out: percentage of ticks affected on the Warm Plate",0%
same,pest or weed control at 0.04 %,"Ixodes ricinus; Ixodes ricinus, 0.04% in ethanol (Table 12), read-out: percentage of ticks affected on the Warm Plate",0%
same,pest or weed control at 0.0598 %,"Ixodes ricinus; Ixodes ricinus, 0.0598% in ethanol (Table 12), read-out: percentage of ticks affected on the Warm Plate",31%
same,pest or weed control at 0.089 %,"Ixodes ricinus; Ixodes ricinus, 0.089% in ethanol (Table 12), read-out: percentage of ticks affected on the Warm Plate",29%
same,pest or weed control at 0.2 %,"Ixodes ricinus; Ixodes ricinus, 0.2% in ethanol (Table 12), read-out: percentage of ticks affected on the Warm Plate",85%
same,pest or weed control at 0.447 %,"Ixodes ricinus; Ixodes ricinus, 0.447% in ethanol (Table 12), read-out: percentage of ticks affected on the Warm Plate",100%
same,pest or weed control at 1 %,"Ixodes ricinus; Ixodes ricinus, 1% (Table 11), read-out: percentage of ticks affected on the Warm Plate",92%
same,pest or weed control at 1 %,"Ixodes ricinus; Ixodes ricinus, 1% in ethanol (Table 12), read-out: percentage of ticks affected on the Warm Plate",71%
same,threshold concentration to be efficient to repel the ticks,Ixodes ricinus; Table 9,above 0.2%
same,ticks affected,Ixodes ricinus; dose of 0.89%,29%
same,% repulsion,Aedes aegypti [2]; 0.02% in ethanol on human skin,23.3%
same,% repulsion,Aedes aegypti [2]; 0.1% in ethanol on human skin,27.8%
same,% repulsion,Aedes aegypti [2]; 0.5% in ethanol on human skin,54.4%
same,% repulsion,Aedes aegypti [2]; 2.5% in ethanol on human skin,82.2%
same,% repulsion,Aedes aegypti [2]; 10% in ethanol on human skin,93.3%
same,concentration from which a significant repellent effect is shown,"Aedes aegypti [2]; on its own, in ethanol",≥ 0.5%

# Source: patent publication US20260068882A1, “ARTHROPOD CONTROLLING COMPOSITION” (Firmenich SA, priority 2019, published 2026)
